According to ChEMBL document CHEMBL1140634, “The biology and chemistry of hyperlipidemia” (Bioorg Med Chem, 2007):

Experiments:
[1] = biological target: T1, Pancreatic triacylglycerol lipase (Homo sapiens, UniProt P16233); experiment: Inhibition of pancreatic lipase
T1 sequence (P16233 whole entry): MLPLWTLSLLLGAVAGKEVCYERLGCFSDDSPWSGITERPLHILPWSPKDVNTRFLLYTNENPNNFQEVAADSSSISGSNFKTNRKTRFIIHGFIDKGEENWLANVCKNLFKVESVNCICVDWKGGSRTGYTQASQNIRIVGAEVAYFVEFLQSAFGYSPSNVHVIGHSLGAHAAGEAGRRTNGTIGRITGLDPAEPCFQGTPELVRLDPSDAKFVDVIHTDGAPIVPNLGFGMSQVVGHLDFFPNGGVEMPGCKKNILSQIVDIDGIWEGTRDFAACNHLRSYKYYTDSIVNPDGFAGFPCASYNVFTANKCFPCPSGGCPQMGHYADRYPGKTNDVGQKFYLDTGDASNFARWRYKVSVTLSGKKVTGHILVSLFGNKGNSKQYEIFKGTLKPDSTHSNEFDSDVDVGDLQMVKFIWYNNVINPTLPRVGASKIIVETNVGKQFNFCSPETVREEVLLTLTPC

Rattus norvegicus [2] = organism: Rattus norvegicus; experiment: Inhibition of [14C]cholesterol synthesis in rat liver after 1 hr; assay type: functional
[3] = Inhibition of rat liver microsomal squalene synthase
Rattus norvegicus [4] = experiment: Reduction in LDL cholesterol in rat plasma at 20 mg/kg, po qd for 7 days; assay type: functional; design: scale not given: the % may be the effect or the level left
[5] = Inhibition of ferrous/ascorbate induced lipid peroxidation of microsomal membrane lipids; assay type: functional
[6] = biological target: T2, Lanosterol 14-alpha demethylase (Rattus norvegicus, UniProt Q64654); experiment: Inhibition of rat liver LDM
T2 sequence (Q64654 whole entry): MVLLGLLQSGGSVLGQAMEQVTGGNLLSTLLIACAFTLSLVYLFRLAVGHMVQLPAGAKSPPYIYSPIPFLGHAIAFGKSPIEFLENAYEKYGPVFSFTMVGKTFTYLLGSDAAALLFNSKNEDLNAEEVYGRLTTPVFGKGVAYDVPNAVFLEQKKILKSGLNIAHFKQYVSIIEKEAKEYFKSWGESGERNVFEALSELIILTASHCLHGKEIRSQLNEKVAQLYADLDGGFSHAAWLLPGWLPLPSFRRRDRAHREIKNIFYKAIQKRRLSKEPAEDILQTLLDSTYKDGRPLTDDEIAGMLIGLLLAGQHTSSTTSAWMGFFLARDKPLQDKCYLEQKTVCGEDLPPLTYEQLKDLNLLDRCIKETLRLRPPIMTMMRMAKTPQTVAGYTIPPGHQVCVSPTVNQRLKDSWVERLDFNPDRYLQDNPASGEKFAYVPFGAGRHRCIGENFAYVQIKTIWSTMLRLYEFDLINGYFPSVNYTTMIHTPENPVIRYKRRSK

Rattus norvegicus [7] = organism: Rattus norvegicus; experiment: Reduction of cholesterol absorption in normal diet fed rat; assay type: functional
[8] = Inhibition of HMG-CoA synthase
Oryctolagus cuniculus = organism: Oryctolagus cuniculus; experiment: Decrease in aortic arch lesions in cholesterol fed rabbit; assay type: functional; design: scale not given: the % may be the effect or the level left
[9] = biological target: T3, 3-hydroxy-3-methylglutaryl-coenzyme A reductase (Homo sapiens) (UniProt P04035); experiment: Inhibition of HMG-CoA reductase relative to control; details: concentration not given here
T3 sequence (whole entry): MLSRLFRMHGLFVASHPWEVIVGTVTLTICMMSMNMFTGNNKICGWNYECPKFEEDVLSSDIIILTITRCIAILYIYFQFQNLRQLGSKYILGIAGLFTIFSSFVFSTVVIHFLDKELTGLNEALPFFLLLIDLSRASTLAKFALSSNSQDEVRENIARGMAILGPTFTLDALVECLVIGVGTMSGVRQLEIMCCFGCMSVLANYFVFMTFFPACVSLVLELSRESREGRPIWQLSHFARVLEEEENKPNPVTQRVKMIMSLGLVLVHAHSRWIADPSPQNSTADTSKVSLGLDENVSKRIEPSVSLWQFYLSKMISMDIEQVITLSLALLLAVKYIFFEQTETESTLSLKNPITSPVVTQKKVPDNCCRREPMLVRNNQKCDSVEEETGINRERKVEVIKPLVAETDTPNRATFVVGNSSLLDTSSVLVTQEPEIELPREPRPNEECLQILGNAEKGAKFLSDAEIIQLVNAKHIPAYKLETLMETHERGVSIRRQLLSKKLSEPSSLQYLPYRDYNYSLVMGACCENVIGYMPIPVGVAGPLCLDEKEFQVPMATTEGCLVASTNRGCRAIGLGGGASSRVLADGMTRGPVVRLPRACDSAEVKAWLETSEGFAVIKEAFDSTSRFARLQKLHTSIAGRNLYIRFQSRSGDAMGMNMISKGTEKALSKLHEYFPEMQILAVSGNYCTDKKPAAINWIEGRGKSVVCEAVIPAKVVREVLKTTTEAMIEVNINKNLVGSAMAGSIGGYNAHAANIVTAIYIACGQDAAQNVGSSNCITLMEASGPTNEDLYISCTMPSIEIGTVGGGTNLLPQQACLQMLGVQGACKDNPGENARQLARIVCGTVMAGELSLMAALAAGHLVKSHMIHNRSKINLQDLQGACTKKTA

[10] = biological target: T4, Lanosterol 14-alpha demethylase (Homo sapiens, UniProt Q16850); experiment: Inhibition of LDM in human HepG2 cells at 2 nM; assay type: cell-based
T4 sequence (Q16850 whole entry): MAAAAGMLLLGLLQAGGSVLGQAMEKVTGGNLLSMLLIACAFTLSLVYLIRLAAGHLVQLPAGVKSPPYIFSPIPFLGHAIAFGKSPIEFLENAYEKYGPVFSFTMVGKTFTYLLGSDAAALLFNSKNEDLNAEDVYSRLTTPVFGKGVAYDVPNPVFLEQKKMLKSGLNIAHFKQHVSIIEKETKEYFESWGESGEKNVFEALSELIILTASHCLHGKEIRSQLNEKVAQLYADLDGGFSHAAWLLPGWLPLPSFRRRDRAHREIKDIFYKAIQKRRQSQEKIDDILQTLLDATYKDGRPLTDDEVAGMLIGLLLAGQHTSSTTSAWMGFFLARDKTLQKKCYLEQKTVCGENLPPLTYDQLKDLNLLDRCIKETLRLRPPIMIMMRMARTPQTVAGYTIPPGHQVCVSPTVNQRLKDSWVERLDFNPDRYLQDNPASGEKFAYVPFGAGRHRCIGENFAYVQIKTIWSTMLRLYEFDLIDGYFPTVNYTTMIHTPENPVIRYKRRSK

Rhesus monkey = experiment: Decrease in nonHDL-C level in rhesus monkey plasma at 50 mg/kg, bid for 21 days; assay type: functional, Macaca mulatta; design: scale not given: the % may be the effect or the level left
Rattus norvegicus [11] = experiment: Inhibition of cholesterol biosynthesis in po dosed Sprague-Dawley rat; assay type: functional
HepG2 [12] = experiment: Inhibition of fatty acid synthesis in human HepG2 cells; assay type: functional
HepG2 [13] = experiment: Inhibition of cholesterol synthesis in human HepG2 cells; assay type: functional
Rattus norvegicus [14] = organism: Rattus norvegicus; experiment: Inhibition of cholesterol synthesis in rat; assay type: functional
Rattus norvegicus [15] = organism: Rattus norvegicus; experiment: Inhibition of fatty acid synthesis in rat; assay type: functional
Lanosterol synthase = biological target: T5, Lanosterol synthase (Candida albicans (strain SC5314 / ATCC MYA-2876) (Yeast), UniProt Q04782)
T5 sequence (Q04782 whole entry): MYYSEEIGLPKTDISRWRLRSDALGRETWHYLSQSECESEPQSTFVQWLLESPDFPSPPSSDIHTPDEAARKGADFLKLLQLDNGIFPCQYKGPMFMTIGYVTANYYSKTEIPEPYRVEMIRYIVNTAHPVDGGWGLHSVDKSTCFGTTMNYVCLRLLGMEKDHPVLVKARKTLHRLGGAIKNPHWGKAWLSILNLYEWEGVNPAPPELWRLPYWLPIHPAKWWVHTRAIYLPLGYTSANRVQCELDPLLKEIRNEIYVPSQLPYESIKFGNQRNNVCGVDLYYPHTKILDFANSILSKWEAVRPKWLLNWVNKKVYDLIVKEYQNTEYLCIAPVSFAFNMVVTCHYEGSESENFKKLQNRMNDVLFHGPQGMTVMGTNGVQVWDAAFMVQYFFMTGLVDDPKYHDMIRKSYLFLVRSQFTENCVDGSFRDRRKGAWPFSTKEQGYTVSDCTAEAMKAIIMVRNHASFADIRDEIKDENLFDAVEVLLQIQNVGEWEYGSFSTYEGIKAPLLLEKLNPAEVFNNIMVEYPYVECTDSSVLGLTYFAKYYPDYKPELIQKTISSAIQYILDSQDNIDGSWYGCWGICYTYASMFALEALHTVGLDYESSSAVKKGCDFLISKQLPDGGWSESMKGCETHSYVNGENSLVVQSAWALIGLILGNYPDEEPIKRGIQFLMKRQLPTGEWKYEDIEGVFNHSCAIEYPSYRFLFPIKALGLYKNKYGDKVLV
Description: Inhibition of Candida albicans OSC

[16] = Inhibition of pig OSC; design: species or system Sus scrofa

CC(C)c1cc2c(c(O)c1O)[C@@]1(C(=O)O)CCCC(C)(C)[C@@H]1CC2 [CARNOSIC ACID]
IC50 [1]: 36000 nM

O[C@]1(c2ccc(-c3ccc4ncccc4c3)cc2)CN2CCC1CC2
ED50 (Rattus norvegicus [2]): 5 mg/kg
IC50 [3]: 0.6 nM
Activity (Rattus norvegicus [4]): 50%

O[C@@]1(c2ccc(-c3ccc4ncccc4c3)cc2)CN2CCC1CC2
ED50 (Rattus norvegicus [2]): 5 mg/kg
IC50 [3]: 0.6 nM
Activity (Rattus norvegicus [4]): 43%

CN1CC(O)(c2ccc(-c3ccccc3)cc2)OC2CCCCC21 (centres undefined)
IC50 [5]: 250000 nM

CC(C)CCC[C@@H](C)[C@H]1C/C(=N\O)[C@@]2(C)[C@@H]3CC[C@@]4(C)C[C@@H](O)CC[C@]4(O)[C@H]3CC[C@]12C
IC50 [6]: 55000 nM

CC1CCN(C(=O)Oc2ccc(Oc3ccccc3)cc2)CC1
ED50 (Rattus norvegicus [7]): 10 mg/kg

C/C=C/CCCC/C=C/C(=O)N[C@@H](C[C@@]1(O)C(=O)C2OC2C2OC21)C(=O)OC (some centres undefined)
IC50 [8]: 31000 nM

CCC(CC)CC1(C(=O)Nc2ccccc2SC(=O)C(C)C)CCCCC1 [DALCETRAPIB]
Activity (Oryctolagus cuniculus): 70%

CC(C)CCC[C@@H](C)[C@H]1C=C[C@@]2(CC(=O)O)C3=C(CC[C@]12C)[C@@]1(C)CC[C@H](O)C(C)(C)[C@@H]1CC3
inhibition [9]: 30%
inhibition at 0.002 µM [10]: 50%

F/C(COc1ccc2c(c1)[nH]c1ccccc12)=C1/CN2CCC1CC2
Activity (Rhesus monkey): 37%
ED50 (Rattus norvegicus [2]): 32 mg/kg

C/C=C/CCCC/C=C/C(=O)NC(CC1(O)C(=O)C2OC2C2OC21)C(=O)OC (centres undefined)
IC50 [8]: 150 nM

CCOc1ccc(CC(=O)OC[C@@H]2[C@H](CC)C(=O)N2Cc2ccc(S(=O)(=O)O)cc2)cc1OCC
IC50 [8]: 2 nM

COc1ccccc1/C(C)=C/CN(C)CCCC(P(=O)(O)OCOC(=O)C(C)(C)C)P(=O)(OCOC(=O)C(C)(C)C)OCOC(=O)C(C)(C)C (centres undefined)
ED50 (Rattus norvegicus [11]): 1.6 mg/kg

CC(C)c1cc2c(c(O)c1O)[C@@]13CCCC(C)(C)[C@@H]1C[C@@H]2OC3=O [CARNOSOL]
IC50 [1]: 13000 nM

O=C(O)C[C@@]1(O)C[C@@H](CCCCCCc2ccc(Cl)cc2Cl)OC1=O
Inhibition (HepG2 [12]): 82%
Inhibition (HepG2 [13]): 91%
Inhibition (Rattus norvegicus [14]): 76%
Inhibition (Rattus norvegicus [15]): 39%

COc1ccccc1/C(C)=C/CN(C)CCCC(P(=O)(O)O)P(=O)(O)O
IC50 [3]: 3.6 nM

C/C=C/CCCC/C=C/C(=O)N[C@H](C[C@]1(O)C(=O)C2OC2C2OC21)C(=O)OC (some centres undefined)
IC50 [8]: 98 nM

CC(C)=CCCC(C)SCC/C(C)=C/CC/C=C(\C)CC/C=C(\C)CCC1OC1(C)C (centres undefined)
IC50 (Lanosterol synthase): 0.22 nM
IC50 [16]: 50 nM
Ki [16]: 500 nM
